The results in this text go back to PubChem BioAssay (NCI).

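Results reflect a 48-hour exposure of cells in 96-well plates to compound at five concentrations. Abbreviation: GI50, concentration required for 50% inhibition of growth. TGI marks complete inhibition of growth.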 A value given as a limit tells only on which side of the number the result lay.

What all share (experiment): NCI anticancer screen, dose series, 48 h
For experiment [1], the system named is HOP-62 NSCLC.
The test system of experiment [2] is HL-60(TB) leukemia.
Experiment [3] relates to HT29 colon.
In experiment [4] the test system is K-562 leukemia.
Experiment [5] deals with NCI-H23 lung.
Experiment [6] deals with OVCAR-8 ovarian.
Experiment [7] has as its system OVCAR-4 ovarian.
Experiment [8] concerns UACC-62 melanoma.
For experiment [9], the system named is MALME-3M melanoma.
Experiment [10] deals with MDA-MB-231 breast.

`CC[N+]1(C)CCC(O)(c2ccccc2)C(C(=O)c2ccccc2)C1` (stereo not given): the TGI in [1] stood at 48.2 µM; in experiment [2], 15.9 µM; in experiment [3] it was 31.8 µM; in experiment [4], 13.2 µM; in experiment [5] it was 40.8 µM; in [6], 59.1 µM. For the same compound, the TGI in [7] worked out at 25.9 µM; in experiment [8], 38.6 µM; in experiment [9], 32.6 µM; in experiment [10] it was 42.7 µM.

In the case of `Nc1ccn(C2CC(O)C(CO)O2)c(=O)n1` (stereo not given), the GI50 in experiment [1], in experiment [2], in experiment [3], in [4], in experiment [5] and in experiment [6] was above 5000 µM in each case. The GI50 in experiment [7], in experiment [8], in [9] and in experiment [10] was above 5000 µM throughout. Further, the TGI in [1], in [2], in experiment [3], in experiment [4], in [5] and in [6] was above 5000 µM in each case. Further, the TGI in [7], in [8], in experiment [9] and in experiment [10] was above 5000 µM in each case.

Consider `CC1(C)N=C(N)N=C(N)N1c1cccc(CCCCc2ccccc2)c1`, for which the GI50 is 0.556 µM in [1]; 0.0925 µM in experiment [2]; 0.0543 µM in experiment [3]; 0.0688 µM in [4]; 0.402 µM in [5]; 0.262 µM in [6]. Moreover, the GI50 in experiment [7] was 0.433 µM; in experiment [8], 0.186 µM; in [9] it was 2.31 µM; in experiment [10] it was 2.47 µM. Further, the TGI in experiment [1] came out at 22.2 µM; in [2], 2.52 µM; in [3], 11.6 µM; in experiment [4], 13.6 µM; in experiment [5], 14.1 µM; in experiment [6] it was 16 µM. Besides, the TGI in [7] worked out at 18.8 µM; in experiment [8], 10.9 µM; in experiment [9], 14.8 µM; in [10], 21.3 µM.
